The text below walks through data of PubChem BioAssay (NCI).

Each structure is given as a SMILES string.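 Where inhibition never reached the appropriate level, the endpoint shown equals the highest concentration tested. Otherwise, values were interpolated linearly from a five-concentration, 48-hour dose response in 96-well plates. Definition used: TGI = concentration required for complete inhibition of growth.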 Some results are limits rather than exact numbers.

Holding throughout (assay): DTP human tumour cell line panel, 48 h
Assay [1] relates to OVCAR-8 ovarian.
For assay [2], the system named is EKVX NSCLC.
Assay [3] concerns HCT-15 colon.
In assay [4] the test system is MCF7 breast.
The test system of assay [5] is MDA-MB-231 breast.
Assay [6] has as its system HCT-116 colon.
Assay [7] has as its system U251 CNS.
The test system of assay [8] is HOP-62 NSCLC.
Assay [9] deals with NCI-H23 lung.
In assay [10] the test system is RXF 393 renal.
Assay [11] relates to HOP-92 NSCLC.
Assay [12] has as its system COLO 205 colon.
The test system of assay [13] is HCC-2998 colon.
Assay [14] concerns A549 NSCLC.
In assay [15] the test system is SF-295 CNS.
Assay [16] deals with SF-539 CNS.
Assay [17] relates to LOX IMVI melanoma.
Assay [18] deals with OVCAR-5 ovarian.
In assay [19] the test system is NCI-H226 lung.

As usually defined, the TGI is the concentration at which net growth stops. High values mean less potent growth arrest, low ones more potent growth arrest. In the case of `CO[C@]12S[C@@H]3CCCC[C@@]31C(C)(C)C(=O)N2c1ccccc1`, the TGI in [1], in assay [2], in [3], in [4], in assay [5] and in assay [6] was above 100 µM in each case. Further, the TGI in assay [7] is above 100 µM; in assay [8], 53.5 µM; in assay [9], above 100 µM; in [10], above 100 µM; in assay [11] it was above 100 µM; in [12] it was 44 µM. The concentration for total growth inhibition (TGI) is above 100 µM in assay [13]; above 100 µM in assay [14]; 51.1 µM in assay [15]; 28.6 µM in [16]; above 100 µM in assay [17]; above 100 µM in [18].

With `CCOC(=O)C1C(c2ccc(OC)cc2)c2c([nH][nH]c2=O)CC1(C)O` (centres undefined), the total growth inhibition concentration (TGI) in [1], in assay [2], in [3], in [4], in assay [5] and in [6] was above 100 µM in each case. Besides, the TGI in [7], in [8], in [9], in assay [11], in assay [12] and in assay [13] was above 100 µM in each case. In addition, the TGI in assay [14], in assay [15], in [16], in assay [17] and in assay [18] was above 100 µM in each case.

On to `Cc1cc(S(=O)(=O)Nc2nnc3ccccn23)c(S)cc1Cl`, for which the TGI in [1], in [2], in assay [3], in assay [4], in assay [5] and in assay [6] was above 100 µM throughout. Also, the total growth inhibition concentration (TGI) in assay [7], in [8], in [9], in [12], in assay [13] and in assay [14] was above 100 µM throughout. Further, the TGI in assay [15] is 64.8 µM; in [16], above 100 µM; in assay [17], above 100 µM; in assay [18], above 100 µM.

Regarding `CCOC(=O)CSC1NC(C(=O)OC)CC1OC` (centres undefined), the TGI in assay [1], in [2], in assay [3], in assay [4], in [5] and in [6] was above 100 µM throughout. Besides, the TGI in assay [7], in assay [8], in assay [9], in assay [10], in [11] and in assay [12] was above 100 µM each time. The TGI in assay [13], in assay [14], in [15] and in [18] was above 100 µM throughout.

Consider `O=C(COc1ccccc1)N(C(=O)N1CCN(c2ccccc2)CC1)S(=O)(=O)c1ccccc1`, for which the TGI in assay [1], in [2], in [3], in [19], in assay [4] and in assay [5] was above 100 µM in each case. For the same compound, the TGI in assay [6], in assay [7], in assay [8], in assay [9], in assay [11] and in assay [12] was above 100 µM each time. For the same compound, the TGI in assay [13], in assay [14], in assay [15], in assay [16], in assay [17] and in [18] was above 100 µM each time.

Turning to `C=CCN1C[C@H](C)N([C@H](c2ccc(C(=O)N(CC)CC)cc2)c2cccc(OC)c2)C[C@H]1C`, the TGI in assay [1] was above 100 µM; in assay [2], above 100 µM; in assay [3], above 100 µM; in assay [19], 95.6 µM; in assay [4], above 100 µM; in assay [5], above 100 µM. Moreover, the TGI in [6] was above 100 µM; in assay [7] it was above 100 µM; in [8], above 100 µM; in [9], above 100 µM; in assay [11], 63.9 µM; in assay [12] it was 38.7 µM. Besides, the TGI in assay [14] is above 100 µM; in assay [15], 58.3 µM; in assay [16], above 100 µM; in [18], above 100 µM.

`CN(C)c1ccc(/C=N/c2nc3cc4sc(/N=C/c5ccc(N(C)C)cc5)nc4cc3s2)cc1`: the TGI in assay [1], in [2], in [3], in [19], in assay [4] and in [5] was above 100 µM each time. Moreover, the TGI in [6], in [7], in assay [8], in assay [9], in [11] and in assay [12] was above 100 µM each time. The TGI in [14], in [15], in assay [16], in [17] and in assay [18] was above 100 µM in each case.

Take `O=C1c2ccccc2C(=O)c2c(NC(=O)C3CC3)ccc(NC(=O)C3CC3)c21`: the TGI in [1], in assay [2], in assay [3], in assay [4], in assay [5] and in assay [6] was above 100 µM in each case. Further, the TGI in assay [7], in assay [8], in [9], in [12], in assay [13] and in assay [14] was above 100 µM in each case. Moreover, the concentration for total growth inhibition (TGI) in [15], in [16], in assay [17] and in assay [18] was above 100 µM each time.
